Measurements reported in patent US20220017491A1, “COMPOUND INHIBITING YAP-TEAD BINDING, AND PHARMACEUTICAL COMPOSITION FOR PREVENTING OR TREATING CANCER, COMPRISING COMPOUND AS ACTIVE INGREDIENT” (KOREA RESEARCH INSTITUTE OF CHEMICAL TECHNOLOGY, priority 2018, published 2022).

What was measured:
YAP-TEAD = assay: Luciferase assay of YAP-TEAD binding inhibition (TEAD luciferase reporter 8XGTIIC in HEK293T cells); assay type: cell-based; details: 10 μM, 24 hours, luciferase normalized with β-galactosidase
Method: A Luciferase assay which allows an inhibition degree of YAP-TEAD, previously reported in Cancers 2018, 10(5), 140, was used to measure an in vitro binding inhibition rate of YAP-TEAD.
HEK293T cells were purchased from American Type Culture Collection and incubated in DMEM media containing 10% FBS, L-glutamine, and penicillin/streptomycin. The HEK293T cells were seeded in a 24 well plate at a density of 1×10^5, and coated with polyethyleneamine (10 μg/mL). These cells were transfected with 8XGTIIC-luciferase (Addgene reference 34615) which is TEAD luciferase reporter plasmid and control β-galactosidase plasmid CMV-β-Gal using a lipofectamine 2000 reagent (Life Technologies, Inc.) according to the manufacturer's manual. Thereafter, the compound of the present invention was treated at a concentration of 10 μM for 24 hours, the cells were lysed using a Reporter lysis buffer (Promega, France), luciferase activity was read with a Mithras LB940 plate reader, and then normalization was performed with β-galactosidase.

HT29 cells = assay: Proliferation assay for HT29 colorectal cancer cells (CellTiter-Glo cell viability); assay type: cell-based; details: Homo sapiens, HT-29; HT29 colorectal cancer cell line, 72 hours, ATP detection
Method: HT-29 which is a commercially available colorectal cancer cell line was treated with trypsin-EDTA, incubated, and seeded in a 96 well plate. […] The treated cells were incubated for further 72 hours and cell viability was measured by an ATP detection method (CellTiter-Glo LuminescentCell Viability Assay, Promega).
In order to confirm the anticancer effect of the compounds according to the present invention, a proliferation assay for HT29 cells which are a colorectal cancer cell line was performed by the above method, and IC50 values as a result are listed in the following Table 4: […]

[1] = system: AOM/DSS-induced colorectal cancer; assay: Anticancer activity in AOM/DSS orthotopic syngeneic mouse model; assay type: in vivo, B6 mouse; details: intraperitoneally for three weeks; intestinal tissue FACS; FIG. 3
Method: In order to measure an anticancer effect in the state of immunity existing in a large intestine, a conventionally known AOM/DSS model was used to measure anticancer activity (J. Vis. Exp. (67), e4100 10.3791/4100, Cell Death & Dis. 2018, 9, 153).
A B6 mouse was adapted to an animal room for one week and then azoxymethane (AOM) was injected intraperitoneally at 10 mg/kg. After one week, the B6 mouse was supplied with a 2.5% dextran sulfate sodium (DSS) solution for one week and alternatively supplied with fresh water for two weeks, which was repeated three time, thereby causing colorectal cancer. After colorectal cancer was caused, the YAP-TEAD inhibition compound 17 of the present invention was injected intraperitoneally at 50 mg/kg, five times a week, for three weeks. After the dosing period was over, an intestine tissue was surgically isolated and the number and size of cancer tissue in the intestine tissue were measured and quantitatively analyzed, and the results are illustrated in FIGS. 1 to 3.
In addition, in order to confirm a ratio of Treg cells which play an important role in immunosuppression in cancer tissues, FACS analysis was performed. […]

COCCCN1C(=O)c2cccc3c(NC(=O)C4CCCCN4S(=O)(=O)c4cccs4)ccc1c23 (stereo not drawn) [Compound 17]
Inhibition(%) (YAP-TEAD): 78% | IC50 (HT29 cells): 6.91 µM | Treg cells in cancer tissue (FACS, CD4 and Fop3) [1]: Treg cell decrease was confirmed
